Experimental data: ChEMBL document CHEMBL1926605, “Synthesis, structure-activity relationships, and mechanism of action of anti-HIV-1 lamellarin α 20-sulfate analogues” (Bioorg Med Chem, 2011)
The source made the active and inactive calls. No cut-off for these calls is given here.

Columns and labels:
HeLa [1] = test: Cellular uptake in human HeLa cells expressing CD4 at 100 uM after 24 hrs by confocal laser scanning microscopy analysis; type: ADME, cell-based
[2] = tested on: Human immunodeficiency virus 1; test: Antiviral activity against HIV1 in COS7 cells expressing HXB2 Env, R8.91, and pTY-EFnLacZ assessed as reduction of viral vector infection into human HeLa cells expressing CD4 at 100 uM after 2 days using 5-bromo-4-chloro-3-indolyl-beta-D-galactopyranoside staining; type: functional, organism-based
HeLa [3] = test: Cytotoxicity against human HeLa cells expressing CD4 after 24 hrs by WST-1 assay; type: cell-based
[4] = tested on: Human immunodeficiency virus 1; test: Antiviral activity against LacZ-containing HIV1 in COS7 cells expressing HXB2 Env, R8.91, and pTY-EFnLacZ assessed as reduction of viral vector infection into human HeLa cells expressing CD4 after 2 days using 5-bromo-4-chloro-3-indolyl-beta-D-galactopyranoside staining; type: functional, organism-based; conditions: Human immunodeficiency virus 1, HeLa, 48 h
HeLa [5] = test: Cytotoxicity against human HeLa cells by MTT assay; type: cell-based
[6] = tested on: Human immunodeficiency virus 1; test: Antiviral activity against HIV1 infected in MAGIC5 cells co-cultured with Cos7 cells assessed as inhibition of viral envelope mediated cell-cell fusion at 100 uM after 24 hrs by beta galactosidase assay; type: functional, organism-based; conditions: COS-7
HeLa [7] = test: Cellular uptake in human HeLa cells expressing CD4 at 100 uM after 24 hrs by confocal laser scanning microscopy analysis in presence of methanol; type: ADME, cell-based

Row | Structure (SMILES) | Drug uptake (HeLa [1]) | Activity [2] | IC50 (HeLa [3]) [µM] | IC50 [4] [µM] | Activity (HeLa [5]) [µM] | inhibition [6] | Drug uptake (HeLa [7])
1 | COc1ccc(-c2c3c4cc(OC)c(OS(=O)(=O)[O-])cc4oc(=O)c3n3ccc4cc(OC)c(OC)cc4c23)cc1O.[Na+] | Not Active | Active | > 100 | 13 | 274 | Active | Active
2 | COc1ccc(-c2cn(CCc3ccc(OC)c(OC)c3)c3c(=O)oc4cc(OS(=O)(=O)O)c(OC)cc4c23)cc1O | – | – | – | > 100 | – | inactive | –
3 | COc1cc2ccn3c(c(-c4ccc(OC)c(OS(=O)(=O)[O-])c4)c4c5cc(OC)c(OS(=O)(=O)[O-])cc5oc(=O)c43)c2cc1OC.[Na+].[Na+] | Not Active | Active | > 100 | 15.1 | – | Active | Active
4 | COc1ccc(-c2c3n(c4c(=O)oc5cc(OS(=O)(=O)[O-])c(OC)cc5c24)CCc2cc(OC)c(OC)cc2-3)cc1O.[Na+] | Not Active | Active | > 100 | 15.3 | – | Active | Active
5 | COc1ccc(-c2c3c4cc(OC)c(O)cc4oc(=O)c3n3ccc4cc(OC)c(OC)cc4c23)cc1O | Active | – | – | > 100 | – | – | Active
6 | COc1ccc(-c2c3c4cc(OC)c(OS(=O)(=O)[O-])cc4oc(=O)c3n3ccc4cc(OS(=O)(=O)[O-])c(OC)cc4c23)cc1OS(=O)(=O)[O-].[Na+].[Na+].[Na+] | Not Active | Active | > 100 | 20.7 | – | Active | Active
7 | COc1cc2c(cc1O)oc(=O)c1c2c(-c2ccc(OC)c(OS(=O)(=O)[O-])c2)c2c3cc(OC)c(OC)cc3ccn21.[Na+] | Not Active | Active | > 100 | 14.4 | – | Active | Active
